Reference: patent US6521790B2, “Alkynyl amides and their therapeutic applications” (Abbott Laboratories, priority 2000, dated 2003)

Key:
[1] = tested on: pentylenetetrazole (PTZ) induced seizures; test: Latency to and protection against PTZ induced seizures in mice; type: in vivo; conditions: compound 1400 μmol/kg intra-peritoneally; for Time to Seizure: average time for PTZ induced seizure, male CD1 mice, PTZ 85 mg/kg s.c., observed 15 minutes; for Number of Mice Protected: number of mice out of ten that did not seize within 15 minutes after PTZ 85 mg/kg s.c.
Method: Male CD1 mice (Charles River, Portage, Mich.) weighing 25-35 g were used and during the experiment the mice were housed individually in clear polycarbonate cages for observation. For each experiment, ten mice were each pretreated intra-peritoneally with a compound of the present invention (1400 μmol/kg) prior to pentylenetetrazole (PTZ) (Sigma, St. Louis, Mo.) injection. Seizures were induced by the subcutaneous injection of PTZ (85 mg/kg) just below the nape of the neck. […] The data in Table 1 represents the average time for PTZ induced seizure. […] Control animals were not pretreated with a compound of the present invention but were injected with PTZ (85 mg/kg) subcutaneously.

[2] = tested on: electrical shock induced seizures; test: Maximum Electrical Shock Method (MES); type: in vivo; conditions: oral, male CD1 mice
Text: Male CD1 mice (Charles River) weighing from 25-35 g were used. Mice were pretreated orally with compounds of the present invention prior to electrical stimulation. Mice were challenge by pulsed electrical stimulation (50 mA, 0.4 s duration, pulse width 0.5 ms, 60 pulses/sec) via corneal electrodes to induce seizure. The stimulation was delivered with an ECT Unit (Ugo Basile #7801). The electrodes of the unit were coated with electrocardiogram electrolyte (Signa Creme, Parker Labs #1708) to ensure good contact with the corneas. Mice were observed post-stimulation for the onset of seizures and death. […] Animals which gave a positive seizure response were observed an additional 30 seconds for death. […] The percent protection from seizures was calculated by dividing the number of protected mice by the total number of mice for the group. The percentage of mice protected from electrical shock induced seizures at doses of 600, 1200, 1800 and 2400 μmole/kg is illustrated in Table 3 for Example 1 and Example 6. The corresponding acid, (2R)-2-propyl-4-hexynoic acid, was also tested for comparison.

[3] = one study, compared with valproic acid; cited from earlier work
[4] = reported in literature (Abbott, Tang, Palaty 1997); cited from earlier work

| SMILES | Time to Seizure [1] | Number of Mice Protected [1] | Percentage of Mice Protected Against Electrical Shock Induced Seizures ([2]; dose 600 μmole/kg) [%] | Percentage of Mice Protected Against Electrical Shock Induced Seizures ([2]; dose 1200 μmole/kg) [%] | Percentage of Mice Protected Against Electrical Shock Induced Seizures ([2]; dose 1800 μmole/kg) [%] | other results |
| --- | --- | --- | --- | --- | --- | --- |
| CC#CC[C@@H](CCC)C(=O)N[C@@H](C)C(N)=O [Example 4, (2R)-N-[(1S)-2-amino-1-methyl-2-oxoethyl]-2-propyl-4-hexynamide] | 610 s | 6 |  |  |  |  |
| CC#CC[C@@H](CCC)C(=O)NCC(N)=O [Example 1, (2R)-N-(2-amino-2-oxoethyl)-2-propyl-4-hexynamide] | 675 s | 5 | 0 | 70 | 90 | Percentage of Mice Protected Against Electrical Shock Induced Seizures ([2]; dose 2400 μmole/kg): 100% |
| CC#CC[C@@H](CCC)C(=O)O [(2R)-2-propyl-4-hexynoic acid, reference compound] |  |  | 0 | 0 | 0 | Percentage of Mice Protected Against Electrical Shock Induced Seizures ([2]; dose 2400 μmole/kg): 20% |
| CC#CC[C@@H](CCC)C(=O)N[C@H](C(N)=O)C(C)C [Example 2, (2R)-N-[(1S)-1-(aminocarbonyl)-2-methylpropyl]-2-propyl-4-hexynamide] | 305 s | 1 |  |  |  |  |
| CC#CC[C@@H](CCC)C(=O)N[C@@H](CC(C)C)C(N)=O [Example 3, (2R)-N-[(1S)-1-(aminocarbonyl)-3-methylbutyl]-2-propyl-4-hexynamide] | 575 s | 4 |  |  |  |  |
| CC#CC[C@@H](CCC)C(N)=O [Example 6, (2R)-2-propyl-4-hexynamide] | No Seizures | 10 | 0 | 20 | 90 |  |
| CC#CC[C@@H](CCC)C(=O)N[C@H](C)C(N)=O [Example 5, (2R)-N-[(1R)-2-amino-1-methyl-2-oxoethyl]-2-propyl-4-hexynamide] | 525 s | 2 |  |  |  |  |
| CC#CCC(CCC)C(=O)O (stereo not shown) [2-propyl-4-hexynoic acid] |  |  |  |  |  | Antiepileptic effect and duration of activity [3]: effective antiepileptic with a longer duration of activity |
| CCCC(F)(CCC)C(=O)O [2-fluoro-2-propylpentanoic acid] |  |  |  |  |  | Anticonvulsant potency relative to VPA [4]: less potent than VPA |
